Here are results for five compounds from patent publication US20250388810A1, “Kit for Sustaining Luminescence of Luminescent Substrate and Method for Sustaining Luminescence of Luminescent Substrate” (SHIMADZU CORPORATION, priority 2024, published 2025).

Common to all, as to type: biochemical
The target of assay [1] is T1, NanoLuc (Oplophorus gracilirostris, UniProt Q9GV45, A31E/A60N/A81I/F95D/I117V/K70R/L54V/L99Q/M102K/N193R/P142E/Q151K/Q38R/Q45L/V71I/Y165I).
T1 construct: purchased Promega
Nature of the assay: Experiment 2: luminescence reaction of NanoLuc and CTZh in the presence of surfactant and ethanol. The note with it: luminescent enzyme NanoLuc for example 10 nM, CTZh, EtOH. How it is done:
The experiment was performed in the same manner as in Experiment 1 except that NanoLuc (manufactured by Promega) was used as a luminescent enzyme and NP-40 or CHAPS was used as a surfactant. FIG. 3A is graphs showing a change in luminescence intensity over time. […] FIG. 3B is graphs showing the correlation between the maximum value of the normalized luminescence intensity (vertical axis) and the concentration of the luminescent enzyme and the concentration of the surfactant (horizontal axis). FIG. 3C is graphs showing the correlation between the half-life of the luminescence reaction (horizontal axis) and the concentration of the luminescent enzyme and the concentration of the surfactant (vertical axis).

The subject of assay [2] is picALuc. Nature of the assay: Experiment 1: luminescence reaction of picALuc and CTZh in the presence of surfactant and ethanol. The note with it: luminescent enzyme picALuc for example 1 nM, CTZh, EtOH. How it is done: When a luminescent enzyme and a luminescent substrate were allowed to react in the presence of a surfactant and an alcohol, how the luminescence characteristics of the luminescent substrate change was examined. First, the luminescent enzyme and the surfactant described below were diluted in a buffer (137 mM NaCl, 9.6 mM KH2PO4, 2.7 mM KCl, pH 7.0) to obtain an enzyme solution with different concentrations of the luminescent enzyme and the surfactant.
Also, coelenterazine h (CTZh), which is the luminescent substrate, was dissolved in ethanol (EtOH) so that a final concentration thereof was 2.4 mM, to obtain an ethanol solution of CTZh. […]
Then, 50 μL of the enzyme solution and 50 μL of the substrate solution were mixed. The luminescence value was measured immediately after mixing. […] FIG. 1A is graphs showing a change in luminescence intensity over time. […] FIG. 1B is graphs showing the correlation between the maximum value of the normalized luminescence intensity (vertical axis) and the concentration of the luminescent enzyme and the concentration of the surfactant (horizontal axis). FIG. 1C is graphs showing the correlation between the half-life of the luminescence reaction (horizontal axis) and the concentration of the luminescent enzyme and the concentration of the surfactant (vertical axis). […]

The test system of assay [3] is picALuc. Put plainly: Experiment 7: inhibition of luminescence reaction by substrate metabolites with or without NP-40. The note with it: metabolite 1 μM; for luminescence value on addition of substrate metabolite: picALuc 100 nM, nCTZ 8 μM, 60 minutes incubation; for suppression of the decreased ratio in the luminescence value by addition of a surfactant: NP-40 (+) versus NP-40 (−). The protocol: CTM, CTO, or CTMD was added to a mixture solution having the composition described below so that a final concentration was 0 M or 1 μM, followed by incubation at room temperature for 60 minutes. The luminescence value was then measured. At this time, as the measurement device, a GloMax (registered trademark) Navigator Microplate Luminometer (manufactured by Promega) was used. The time indicating the maximum luminescence value (time from addition of the substrate) varies greatly depending on each condition. Therefore, in this experiment, the luminescence value immediately after the addition of the substrate was compared, rather than the maximum luminescence value, so that the amount of the substrate consumed due to the luminescence reaction and the amount of the substrate oxidation due to elapsed time were not taken into consideration. FIG. 10A is graphs showing the correlation between the relative light unit (vertical axis) and the presence or absence of the surfactant and the substrate metabolites (horizontal axis). FIG. 10B is graphs showing the relationship between the rate of decrease in the amount of luminescence due to the addition of the substrate metabolites (vertical axis) and the presence or absence of the surfactant (horizontal axis).
NP-40 (final concentration 0% or 0.01%) picALuc (final concentration 100 nM) nCTZ (final concentration 8 μM) […]
Buffer (137 mM NaCl, 9.6 mM KH2PO4, 2.7 mM KCl, pH 7.0, remainder)

The subject of assay [4] is streptavidin-fused picALuc. Nature of the assay: Experiment 4: simulated detection system, biotinylated BSA detected with streptavidin-fused picALuc. How it is done: In this experiment, as a simulated detection system, biotinylated bovine serum albumin (BSA) was immobilized on a base of a 96-well plate and detection was performed using streptavidin-fused picALuc (FIG. 6A). Specifically, 100 μL of a biotinylated BSA solution (final concentration 10 μg/mL) was first added to each well. After each well was washed with a washing buffer (PBST (0.1% Tween)), blocking was performed by addition of 200 μL of a blocking buffer (20% Immnoblock (manufactured by KAC Co., ltd.) in PBS) to each well. After each well was washed with a washing buffer again, 100 μL of a streptavidin-fused picALuc solution (final concentration 1 μg/mL, diluted with 5% Immunoblock in PBST) was added to each well. Each well was washed with a washing buffer.
Then, immediately before the luminescent substrate was added, NP-40 was diluted with a buffer (PBS) so that the final concentration was 0.002 to 0.2%, and 100 μL of the resulting diluted solution was added to each well. Next, 100 μL of the substrate solution prepared in the same manner as in Experiment 1 was added to each well. The luminescence value was measured immediately after the substrate solution was added. At this time, as the measurement device, GloMax (registered trademark) Navigator Microplate Luminometer (manufactured by Promega) was used. FIG. 6B is a graph showing a change in luminescence intensity over time. […] FIG. 6C is a graph showing the correlation between the maximum value of the relative light unit (vertical axis) and the concentration of the surfactant (horizontal axis). FIG. 6D is a graph showing the correlation between the integrated value of the relative light unit (vertical axis) and the concentration of the surfactant (horizontal axis). The integrated value is the integrated value obtained for 30 minutes after the addition of the substrate solution.

Assay [5] deals with picALuc. Nature of the assay: Experiment 3: luminescence reaction of picALuc and nCTZ with methanol and NP-40. The following applies: picALuc 100 nM, nCTZ 8 μM, methanol. How it is done:
The experiment was performed in the same manner as in Experiment 1 except that methanol (MeOH) manufactured by FUJIFILM Wako Pure Chemical Corporation) was used as an alcohol, NP-40 was used as a surfactant, and native coelenterazine (nCTZ, final concentration 8 μM) (manufactured by FUJIFILM Wako Pure Chemical Corporation) was used as a luminescent substrate. At this time, the final concentration of the luminescent enzyme (picALuc) was set to 100 nM. FIG. 4 is a graph showing a change in luminescence intensity over time.

The subject of assay [6] is picALuc. Nature of the assay: Experiment 8: LC-MS of substrate consumed and substrate metabolites produced in luminescence reaction. The following applies: NP-40 0.01% versus 0%, picALuc 100 nM, nCTZ 8 μM. How it is done: By LC-MS analysis of a reaction solution containing picALuc and nCTZ, the effect of a surfactant (NP-40) on the amount of the substrate (nCTZ) consumed and the amount of the substrate metabolites (CTM, CTO, CTMD) produced was examined.
A substrate solution (100 μL) having the following composition was added to an enzyme solution (100 μL) having the following composition, to prepare a reaction solution.
At 0 minutes of the luminescence reaction (before the addition of the substrate solution), 10 minutes after the luminescence reaction, or 60 minutes after the luminescence reaction, 1/1000 (volume ratio) of hydrochloric acid was added to the reaction solution to stop the luminescence reaction, and methanol, which was five times the amount of the reaction solution, was added, followed by centrifugation. Then, the supernatant was collected to remove the luminescent enzyme. After that, each reaction solution was analyzed with an LC-MS device to measure the respective amounts of nCTZ, CTM, CTO, and CTMD (FIG. 11). The measurement conditions at this time are as follows.
It was thought that the amount of nCTZ was greater than the actual amount when NP-40 was added due to ion effects. Therefore, it was normalized to the amount of nCTZ when NP-40 was not added. Furthermore, the fact that CTM, CTO, and CTMD were already present in the reaction solution at 0 minutes of luminescence reaction is thought to be caused by converting nCTZ to these compounds during storage of nCTZ. Therefore, the amount of nCTZ consumed and the respective amounts of CTM, CTO, and CTMD produced were calculated by subtracting the amount of each component that was present before the reaction (FIG. 12).

Entries after “also recorded” stand apart in the source; their conditions may differ.

T1 sequence (Q9GV45 other isoform, or with tags, fused parts or gaps with the stated changes): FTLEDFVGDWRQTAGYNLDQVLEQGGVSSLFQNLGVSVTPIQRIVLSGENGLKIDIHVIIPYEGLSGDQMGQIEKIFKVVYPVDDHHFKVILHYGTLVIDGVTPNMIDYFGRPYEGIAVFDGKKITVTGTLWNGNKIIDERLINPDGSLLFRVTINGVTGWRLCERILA

Take `CC(CCC(=O)NCCC[N+](C)(C)CCCS(=O)(=O)O)C1CCC2C3C(O)CC4CC(O)CCC4(C)C3CC(O)C12C` (centres unmarked) [CHAPS]: the “maximum value of the normalized luminescence intensity” value in assay [1] and in assay [2] was “enhancement of the luminescence intensity was also observed” each time.

`Nc1ncc(-c2ccc(O)cc2)nc1Cc1ccccc1` [CTM, coelenteramine]: the “luminescence value on addition of substrate metabolite” value (from here on “luminescence value on addition”) is listed as “a decrease in the luminescence value was clearly observed; also recorded: a decrease in the luminescence value was small” in assay [3] (NP-40 (+) 0.01%) and “the luminescence value significantly decreased” in assay [3] (NP-40 (−)). Also, in assay [3], the “suppression of the decreased ratio in the luminescence value by addition of a surfactant” value (shortened to “suppression of the decreased ratio”) was “no significant suppression was observed”.

Regarding `O=C(Cc1ccc(O)cc1)Nc1ncc(-c2ccc(O)cc2)nc1Cc1ccccc1` [CTMD, coelenteramide], the “suppression of the decreased ratio” value in assay [3] is “a tendency to significantly suppress the decreased ratio”. The “luminescence value on addition” value in assay [3] (NP-40 (−)) is reported as “the luminescence value significantly decreased”.

On to `O=c1[nH]cc(-c2ccc(O)cc2)nc1Cc1ccccc1` [CTO, 3-benzyl-5-(4-hydroxyphenyl) pyrazin-2 (1H)-one], for which the results for the “luminescence value on addition” value in assay [3] (NP-40 (+) 0.01%) and in assay [3] (NP-40 (−)) were “a decrease in the luminescence value was small” and “a decrease in the luminescence value was observed”, respectively. The “suppression of the decreased ratio” value in assay [3] is given as “a tendency to significantly suppress the decreased ratio”.

Take “poly(oxyethylene)=octylphenyl ether [NP-40]”: in assay [4] (0.1% NP-40), the “maximum value of the relative light unit versus when NP-40 was not added” value is on record as 2.2 times. Also, the “integrated value of the relative light unit versus when NP-40 was not added” value in assay [4] (0.1% NP-40, integrated for 30 minutes after addition of substrate solution) is given as 3.2 times. For the same compound, the “maximum value of the relative light unit and sustained luminescence” value in assay [4] (NP-40 0.002 to 0.2%) is “an increase in the maximum value of the relative light unit and the sustained luminescence were observed dependently on the concentration”. Besides, the “change in luminescence intensity over time” value in assay [5] was “sustained luminescence and enhancement of the luminescence intensity were observed”. Also, the “maximum value of the normalized luminescence intensity” value in assay [1] was “enhancement of the luminescence intensity was also observed”. In addition, the “maximum value of the normalized luminescence intensity” value in assay [2] was “enhancement of the luminescence intensity was also observed”. In assay [6], the “amount of CTM produced when the surfactant was added” value is on record as “decreased”, the “amount of CTMD produced when the surfactant was added” value is “increased”, the “amount of CTO produced when the surfactant was added” value was “remained almost unchanged” and the “amount of nCTZ consumed when the surfactant was added” value is recorded as “increased”.
